From ChEMBL document CHEMBL1909046, “DrugMatrix in vitro pharmacology data” come the findings set out here.

Structures are written as SMILES.

One assay in a line: DRUGMATRIX: Sigma2 radioligand binding (ligand: [3H] Ifenprodil). Type of assay: cell membranes, Rattus norvegicus, Wistar, Brain, Membrane. To be noted: Not Active = under 50% inhibition at 10 µM.
Consider `N[C@@H](Cc1ccc(F)cc1)C(=O)O`, for which the IC50 entry is on record as “Not Active” and the inhibition constant Ki result was “Not Active”.
On to `CCOC(=O)[C@H](CCc1ccccc1)N[C@@H](C)C(=O)N1Cc2ccccc2C[C@H]1C(=O)O`, for which the IC50 result is given as “Not Active” and the Ki entry was “Not Active”.
As for `CCOC(=O)[C@H](CCc1ccccc1)N[C@@H](C)C(=O)N1CCC[C@H]1C(=O)O`, the IC50 entry is on record as “Not Active” and the Ki entry is “Not Active”.
Turning to `C=C1/C(=C\C=C2/CCC[C@]3(C)[C@@H]([C@H](C)CCCC(C)C)CC[C@@H]23)C[C@@H](O)C[C@@H]1O` [ALFACALCIDOL], the IC50 entry is recorded as “Not Active” and the inhibition constant Ki result is “Not Active”.
For `CO[C@H]1[C@@H](O)[C@H](N)[C@@H](O[C@H]2O[C@H]([C@H](C)N)CC[C@H]2N)[C@H](O)[C@@H]1N(C)C(=O)CN` [ASTROMICIN], the IC50 entry was “Not Active” and the inhibition constant Ki entry is on record as “Not Active”.
`[N-]=[N+]=CC(=O)OC[C@H](N)C(=O)O` [AZASERINE]: the IC50 entry was “Not Active” and the inhibitory constant (Ki) entry is given as “Not Active”.
Take `CC[C@H]1OC(=O)[C@H](C)[C@@H](O[C@H]2C[C@@](C)(OC)[C@@H](O)[C@H](C)O2)[C@H](C)[C@@H](O[C@@H]2O[C@H](C)C[C@H](N(C)C)[C@H]2O)[C@](C)(O)C[C@@H](C)CN(C)[C@H](C)[C@@H](O)[C@]1(C)O` [AZITHROMYCIN]: the half-inhibitory concentration (IC50) result is “Not Active” and the Ki result is given as “Not Active”.
With `CC(C)C[C@H]1C(=O)N2CCC[C@H]2[C@]2(O)O[C@](NC(=O)[C@@H]3C=C4c5cccc6[nH]c(Br)c(c56)C[C@H]4N(C)C3)(C(C)C)C(=O)N12` [BROMOCRIPTINE], the IC50 result is on record as “Not Active” and the Ki result is “Not Active”.
On to `CS(=O)(=O)OCCCCOS(C)(=O)=O` [BUSULFAN], for which the IC50 result is recorded as “Not Active” and the Ki result is recorded as “Not Active”.
Consider `NC(=O)N1c2ccccc2C=Cc2ccccc21` [CARBAMAZEPINE], for which the IC50 result was “Not Active” and the inhibition constant (Ki) entry is recorded as “Not Active”.
Regarding `CCOC(=O)n1ccn(C)c1=S` [CARBIMAZOLE], the half-inhibitory concentration (IC50) entry was “Not Active” and the inhibition constant (Ki) entry was “Not Active”.
On to `Oc1ccccc1O` [CATECHOL], for which the IC50 result is given as “Not Active” and the inhibition constant (Ki) result is “Not Active”.
For the compound `CO[C@@]1(NC(=O)CSCC#N)C(=O)N2C(C(=O)O)=C(CSc3nnnn3C)CS[C@@H]21` [CEFMETAZOLE], the IC50 entry is on record as “Not Active” and the inhibitory constant (Ki) result is “Not Active”.
With `CN(C(=O)CCCOc1ccc2[nH]c(=O)ccc2c1)C1CCCCC1` [CILOSTAMIDE], the 50% inhibitory concentration (IC50) entry is recorded as “Not Active” and the Ki result is recorded as “Not Active”.
Take `Nc1nc(Cl)nc2c1ncn2[C@H]1C[C@H](O)[C@@H](CO)O1` [CLADRIBINE]: the 50% inhibitory concentration (IC50) entry is on record as “Not Active” and the Ki entry is reported as “Not Active”.
`CC[C@H]1OC(=O)[C@H](C)[C@@H](O[C@H]2C[C@@](C)(OC)[C@@H](O)[C@H](C)O2)[C@H](C)[C@@H](O[C@@H]2O[C@H](C)C[C@H](N(C)C)[C@H]2O)[C@](C)(OC)C[C@@H](C)C(=O)[C@H](C)[C@@H](O)[C@]1(C)O` [CLARITHROMYCIN]: the concentration for half-maximal inhibition (IC50) result was “Not Active” and the Ki result is reported as “Not Active”.
As for `CCC[C@@H]1C[C@@H](C(=O)N[C@@H]([C@H]2O[C@H](SC)[C@H](O)[C@@H](O)[C@H]2O)[C@H](C)Cl)N(C)C1` [CLINDAMYCIN], the IC50 result is reported as “Not Active” and the Ki result is “Not Active”.
As to `O=C(O)c1cc(=O)c2c(OCC(O)COc3cccc4oc(C(=O)O)cc(=O)c34)cccc2o1` [CROMOLYN], the IC50 entry is listed as “Not Active” and the Ki result is given as “Not Active”.
For the compound `O=P1(N(CCCl)CCCl)NCCCO1` (stereo not drawn) [CYCLOPHOSPHAMIDE ANHYDROUS], the IC50 entry was “Not Active” and the Ki entry is recorded as “Not Active”.
With `CC(=O)O[C@]1(C(C)=O)CC[C@H]2[C@@H]3C=C(Cl)C4=CC(=O)[C@@H]5C[C@@H]5[C@]4(C)[C@H]3CC[C@@]21C` [CYPROTERONE ACETATE], the 50% inhibitory concentration (IC50) result is “Not Active” and the inhibition constant (Ki) entry is “Not Active”.
As for `Nc1nc(N)nc(NC2CC2)n1` [CYROMAZINE], the IC50 entry is listed as “Not Active” and the Ki result is reported as “Not Active”.
Consider `CCN[C@@H](C)Cc1cccc(C(F)(F)F)c1` [DEXFENFLURAMINE], for which the IC50 result was “Not Active” and the Ki result was “Not Active”.
As to `C[C@H](C(=O)O)c1cccc(C(=O)c2ccccc2)c1` [DEXKETOPROFEN], the IC50 result is “Not Active” and the inhibitory constant (Ki) result was “Not Active”.
Turning to `CN1C(=O)CN=C(c2ccccc2)c2cc(Cl)ccc21` [DIAZEPAM], the IC50 entry is recorded as “Not Active” and the Ki result is recorded as “Not Active”.
`CN1C[C@H](C(=O)N[C@]2(C)O[C@@]3(O)[C@@H]4CCCN4C(=O)[C@H](Cc4ccccc4)N3C2=O)C[C@@H]2c3cccc4[nH]cc(c34)C[C@H]21` [DIHYDROERGOTAMINE]: the half-maximal inhibitory concentration (IC50) result was “Not Active” and the Ki result is “Not Active”.
With `Cc1c(N(C)CS(=O)(=O)[O-])c(=O)n(-c2ccccc2)n1C.[Na+]` [DIPYRONE SODIUM], the concentration for half-maximal inhibition (IC50) entry is given as “Not Active” and the Ki result was “Not Active”.
`CCn1cc(C(=O)O)c(=O)c2cc(F)c(N3CCNCC3)nc21` [ENOXACIN]: the IC50 entry is on record as “Not Active” and the Ki result was “Not Active”.
`CCC(=O)O[C@H]1[C@H](O[C@@H]2[C@@H](C)[C@H](O[C@H]3C[C@@](C)(OC)[C@@H](O)[C@H](C)O3)[C@@H](C)C(=O)O[C@H](CC)[C@@](C)(O)[C@H](O)[C@@H](C)C(=O)[C@H](C)C[C@@]2(C)O)O[C@H](C)C[C@@H]1N(C)C` [ERYTHROMYCIN PROPIONATE]: the IC50 entry is listed as “Not Active” and the inhibition constant (Ki) result is given as “Not Active”.
For the compound `C=C(CC)C(=O)c1ccc(OCC(=O)O)c(Cl)c1Cl` [ETHACRYNIC ACID], the IC50 result is “Not Active” and the Ki entry is recorded as “Not Active”.
In the case of `CCOC(=O)C1=C(C)NC(C)=C(C(=O)OC)C1c1cccc(Cl)c1Cl` (stereo not drawn) [FELODIPINE], the IC50 entry was “Not Active” and the inhibition constant (Ki) result is reported as “Not Active”.
`CC(C(=O)O)c1ccc(-c2ccccc2)c(F)c1` (stereo not drawn) [FLURBIPROFEN]: the IC50 entry is “Not Active” and the Ki entry was “Not Active”.
With `NC[C@@H]1O[C@H](O[C@H]2[C@@H](O)[C@H](O[C@@H]3[C@@H](O)[C@H](N)C[C@H](N)[C@H]3O[C@H]3O[C@H](CN)[C@@H](O)[C@H](O)[C@H]3N)O[C@@H]2CO)[C@H](N)[C@@H](O)[C@@H]1O` [FRAMYCETIN], the 50% inhibitory concentration (IC50) entry is given as “Not Active” and the inhibition constant (Ki) result is “Not Active”.
Consider `Cc1cnc(C(=O)NCCc2ccc(S(=O)(=O)NC(=O)NC3CCCCC3)cc2)cn1` [GLIPIZIDE], for which the IC50 entry is on record as “Not Active” and the Ki result is reported as “Not Active”.
With `Cc1c(F)c(N2CCNC(C)C2)cc2c1c(=O)c(C(=O)O)cn2C1CC1` (stereo not drawn) [GREPAFLOXACIN], the IC50 entry is given as “Not Active” and the inhibition constant (Ki) result was “Not Active”.
`C/C=C\c1ccc(O)c(OC)c1` [ISOEUGENOL]: the half-inhibitory concentration (IC50) entry was “Not Active” and the Ki result is “Not Active”.
For the compound `NC[C@H]1O[C@H](O[C@H]2[C@H](O)[C@@H](O[C@H]3O[C@H](CO)[C@@H](O)[C@H](N)[C@H]3O)[C@H](N)C[C@@H]2N)[C@H](O)[C@@H](O)[C@@H]1O` [KANAMYCIN], the IC50 result is given as “Not Active” and the Ki result is given as “Not Active”.
As to `CC[C@H](C)C(=O)O[C@H]1C[C@@H](C)C=C2C=C[C@H](C)[C@H](CC[C@@H]3C[C@@H](O)CC(=O)O3)[C@H]21` [LOVASTATIN], the IC50 entry is “Not Active” and the inhibition constant (Ki) result was “Not Active”.
Regarding `CC(C(=O)O)c1ccc(CC2CCCC2=O)cc1` (stereo not drawn) [LOXOPROFEN], the half-maximal inhibitory concentration (IC50) entry is reported as “Not Active” and the inhibition constant (Ki) entry was “Not Active”.
`Cc1cccc(Nc2ccccc2C(=O)O)c1C` [MEFENAMIC ACID]: the half-inhibitory concentration (IC50) entry is “Not Active” and the Ki entry was “Not Active”.
Take `COc1ccccc1OCC(O)COC(N)=O` (stereo not drawn) [METHOCARBAMOL]: the concentration for half-maximal inhibition (IC50) result is listed as “Not Active” and the Ki result is “Not Active”.
In the case of `COC(=O)c1ccccc1O` [METHYL SALICYLATE], the concentration for half-maximal inhibition (IC50) entry is “Not Active” and the Ki result is “Not Active”.
With `O=C(O)c1cccnc1` [NIACIN], the 50% inhibitory concentration (IC50) result was “Not Active” and the inhibitory constant (Ki) result is reported as “Not Active”.
`C[C@]12C/C(=C/O)C(=O)C[C@@H]1CC[C@@H]1[C@@H]2CC[C@@]2(C)[C@H]1CC[C@]2(C)O` [OXYMETHOLONE]: the IC50 entry was “Not Active” and the inhibition constant Ki entry is recorded as “Not Active”.
Take `CC(C)(CO)C(O)C(=O)NCCCO` (stereo not drawn) [PANTHENOL]: the 50% inhibitory concentration (IC50) result is “Not Active” and the Ki entry is “Not Active”.
`OCCN1CCN(CCCN2c3ccccc3Sc3ccc(Cl)cc32)CC1` [PERPHENAZINE]: the half-inhibitory concentration (IC50) entry is “Not Active” and the inhibitory constant (Ki) result is on record as “Not Active”.
Turning to `CCCCC1C(=O)N(c2ccccc2)N(c2ccccc2)C1=O` [PHENYLBUTAZONE], the concentration for half-maximal inhibition (IC50) result is listed as “Not Active” and the inhibition constant Ki result is recorded as “Not Active”.
Take `CC[C@H](C)C(=O)O[C@H]1C[C@H](O)C=C2C=C[C@H](C)[C@H](CC[C@@H](O)C[C@@H](O)CC(=O)O)[C@H]21` [PRAVASTATIN]: the IC50 entry was “Not Active” and the Ki entry is reported as “Not Active”.
As to `CC(C)(Sc1cc(C(C)(C)C)c(O)c(C(C)(C)C)c1)Sc1cc(C(C)(C)C)c(O)c(C(C)(C)C)c1` [PROBUCOL], the half-maximal inhibitory concentration (IC50) result is given as “Not Active” and the Ki result was “Not Active”.

The assay is the same for the next values; noted with them: Not Active = under 50% inhibition at 10 µM; read-out: IC50.
Regarding `CC(CCc1ccc(O)cc1)NCCc1ccc(O)c(O)c1` (stereo not drawn) [DOBUTAMINE], the IC50 turned out to be 2600 nM.

The same assay, now with this note: Not Active = under 50% inhibition at 10 µM; read-out: Ki.
Take `CC(CCc1ccc(O)cc1)NCCc1ccc(O)c(O)c1` (stereo not drawn) [DOBUTAMINE]: the Ki turned out to be 1600 nM.
